Experimental data reported in US20080207505A1, “Bna Conjugates and Methods of Use” (priority 2005, published 2008).

System: normal dogs
Assay: Oral administration of hBNP-021 versus native hBNP in normal dogs (randomized crossover)
Settings: dog, oral 350 ug/kg
Experimental: Immediately prior to oral dosing, the powder (either hBNP or hBNP conjugate) was dissolved in a buffered formulation to a concentration of 1.25 mg/mL.
MAP and blood samplings were repeated at 10, 30, 60, 120, 180, and 240 minutes after oral administration. Blood samples were collected in pre-chilled EDTA tubes and immediately placed on ice and centrifuged at −4° C. Plasma was stored at −80° C. until analysis. After extraction, plasma cANP, cBNP, hBNP and cGMP were assessed by radioimmunoassay as previously described (Saito, Y. et al. 1989; Kambayashi, Y. et al, 1990).
Results are expressed as mean ±SEM. Data were assessed by 1-way ANOVA for comparisons within groups followed by post hoc Dunnett's test. Two-way ANOVA was used for comparisons between groups, followed by Bonferroni posttest. Student's paired t test was performed for single comparisons between groups (Graph-Pad Prism software 4.0). Statistical significance was accepted at a value of P<0.05.

CC[C@H](C)[C@@H]1NC(=O)[C@H](CCCNC(=N)N)NC(=O)[C@H](CC(=O)O)NC(=O)[C@H](CCSC)NC(=O)[C@H](CCCCN)NC(=O)[C@H](CCCNC(=N)N)NC(=O)CNC(=O)[C@H](Cc2ccccc2)NC(=O)[C@@H](NC(=O)CNC(=O)[C@H](CO)NC(=O)CNC(=O)[C@H](CCC(N)=O)NC(=O)[C@@H](NC(=O)[C@H](CCSC)NC(=O)[C@H](CCCCN)NC(=O)[C@@H]2CCCN2C(=O)[C@@H](N)CO)C(C)C)CSSC[C@@H](C(=O)N[C@@H](CCCCN)C(=O)N[C@H](C(=O)N[C@@H](CC(C)C)C(=O)N[C@@H](CCCN=C(N)N)C(=O)N[C@@H](CCCN=C(N)N)C(=O)N[C@@H](Cc2cnc[nH]2)C(=O)O)C(C)C)NC(=O)CNC(=O)[C@H](CC(C)C)NC(=O)CNC(=O)[C@H](CO)NC(=O)[C@H](CO)NC(=O)[C@H](CO)NC(=O)[C@H](CO)NC1=O [Native hBNP, reference compound]
plasma hBNP after oral administration: detected in lower levels
